Reference: patent US10045529B2, “Quat cleaner with glycerin ether ethoxylates” (Ecolab USA Inc., priority 2012, dated 2018)

Tests used:
[1] = Glewwe foam meter foam height test; format: physicochemical; settings: 50 ppm
Excerpt: Foam testing was completed for the ethoxylated glycerine ether solfactants in comparison to commercially-available ethoxylated alcohols using a Glewwe foam meter. A Glewwe foam meter provides a dynamic foam test rather than a static test, which is considered more appropriate for simulation of industrial conditions. The equipment and general procedure for the Glewwe form test is described in U.S. Pat. Nos. 3,899,387 and 5,447,648, which are herein incorporated by reference in its entirety. The foam meter itself consists of a thermostated reservoir and a pump to recirculate the aqueous medium with foaming tendencies. The foam developed by the action of the aqueous stream impinging on the surface in the reservoir causes foam formation.
The foam heights of the tested compositions were determined using the following method. First 3000 mL of city water (e.g. 17 gpg) was filled into the Glewwe cylinder. The pump was turned on, pressure adjusted to 6 psi, and heated water to 140° F. The commercially available surfactant (or the solfactant according to the invention) was added at 50 ppm in the cylinder and the timer was started. Foam height was recorded at 1 minute and 5 minutes. After 5 minutes the pump was stopped and foam stability characteristics were observed. The cylinder was then drained, rinsed, and the methods repeated.

[2] = Tergotometer detergency test on EMPA soiled swatches
Method: Laundry detergent compositions using 500 ppm sodium hydroxide (e.g. caustic) and the indicated conventional Surfonic® surfactant or the glycerin ether ethoxylate solfactant according to the invention were evaluated. A tergotometer test procedure was employed to measure detergency of test compositions according to the invention. A tergotometer along with 500 mL pots and water bath were employed. First, unwashed swatches from the lot numbers to be used in the test are read on the Konica Minolta Spectrophotometer model CM-3600d to establish the average initial (before washing) L value. A sampling of each swatch type is used. The desired wash temperature is programmed into the Tergotometer and its water bath is allowed to heat up to that temperature. 500 mL of the desired water type is added to each Tergotometer pot and allowed to equilibrate to the desired temperature.
The following standard, commercially available (EMPA) soiled swatches were used for baseline testing in the Examples, as shown in Table 9.
The test detergent compositions are weighed out and added to the Tergotometer pots. Various detergent compositions as shown in Tables 10-11 were employed under varying water conditions, including 5 grain water (Table 10) and 17 grain water (Table 11).
The detergent systems were agitated for 10 minutes to mix and dissolve in the water sources. The agitation/mixing speed RPM was adjusted to 200. The temperature of the detergent compositions dissolved in water was 60° C., unless indicated otherwise in the Figures/Examples set forth below. The swatches are added quickly to their respective pots in a left to right sequence in order to minimize differences in exposure time to the detergent systems. A wash run is completed for at least 10 minutes. At the end of the run, the swatches are removed from the pots quickly in a left to right sequence using a forceps and are transferred into 500 mL-1 liter of cool water to rinse. After rinsing with cold tap water, excess water from the swatches was removed by squeezing the swatches. The process was repeated with rinsing and squeezing excess water at least 2 more times. The swatches were air dried on a visa napkin or paper towel on the lab bench.
The swatches were then read on the HunterLab Color Quest and calculate % soil removal (i.e. whiteness) from the difference between the initial (before washing) L value and the final L value (after washing). Percent Soil Removal=(L after−L initial)/(96−L initial)*100 is represented as L*.

[3] = Differential Scanning calorimetry (DSC) freeze or melt point; format: physicochemical
Method: Differential Scanning calorimetry (DSC) was run on the various 2-Ethyl Hexanol Glycerin Ether Ethoxylate solfactants set forth in Table 1. The DSC evaluated additional properties of the exemplary set of novel solfactants, namely the freezing point of the molecules. The DSC utilized can be measured down to minus 80° C. for determining a freeze or melt points of a liquid. […] This is distinct form conventional alcohol ethoxylates (having equivalent degrees of ethoxylation) which have very high melt points. For example, many conventional alcohol ethoxylate surfactants have melt points at room temperature or higher, resulting in the compositions being solids at room temperature. In addition, as one skilled in the art ascertains, the more ethyl oxide you add to a standard alcohol ethoxylate, the higher the melt point. This is distinct from the solfactants according to the invention, including the 2-Ethyl Hexanol Glycerin Ether Ethoxylate solfactants set forth in Table 1. For example, Tomadol 24-9 is a solid at room temperature, whereas the equivalent 2EHGE 9 mole is a liquid at room temperature.

[4] = Cloud point of solfactants in various solutions; format: physicochemical; settings: 1% in 10% NaCl
Excerpt: Various 2-Ethyl Hexanol Glycerin Ether Ethoxylate solfactants were produced using ethoxylation by a KOH Catalyst.
Further the cloud point data for the solfactants in various solutions is shown. The cloud point temperatures show the temperature above which a surfactant-rich phase separates from an aqueous solution. There is a clear relationship between the cloud point and the average EO content of the glycerin ether ethoxylate; as the ethylene oxide content of the solfactant increases, the cloud point and water solubility increase. As the carbon number on the molecule increases, a greater number of moles of ethylene oxide are required to be added to the molecule to retain the same cloud point.

Gel formation with water = format: physicochemical
Excerpt: The low foam profiles and low viscosity of the glycerin ether ethoxylate solfactants as shown in Examples 5 and 6 were further compared to gel curves of conventional ethoxylated alcohols (e.g. Tomadol surfactants). […]

In the case of “2-Ethyl Hexanol Glycerin Ether Ethoxylate (9 moles) [2EHGE (9 EO)]”, the “OBSERVATIONS (foam stability after pump stopped)” value ([1]; after 5 minutes pump stopped) is reported as “Unstable - Breaks”, the “Foam Height (in) @ 1 MIN” value ([1]; city water 17 gpg, 140° F., 6 psi, 1 minute) is reported as 4.5 in and the “Foam Height (in) @ 5 MIN” value ([1]; city water 17 gpg, 140° F., 6 psi, 5 minutes) is reported as 4.5 in. The “% removal EMPA 116” value ([2]; 5 gpg water, 50 ppm, 500 ppm sodium hydroxide, 60° C., EMPA 116 (Blood, milk and ink, Cotton)) was 33%, the “% removal EMPA 101” value ([2]; 5 gpg, 50 ppm, EMPA 101 (olive oil/carbon black, Cotton)) was 32% and the “% removal EMPA 104” value ([2]; 5 gpg, 50 ppm, EMPA 104 (olive oil/carbon black, Cotton blend)) was 38%. For the same substance, the “% removal EMPA 106” value ([2]; 5 gpg, 50 ppm, EMPA 106 (mineral oil, Cotton)) was 55.18%, the “% removal EMPA 111” value ([2]; 5 gpg, 50 ppm, EMPA 111 (Pig blood, Cotton)) was 48% and the “% removal EMPA 114” value ([2]; 5 gpg, 50 ppm, EMPA 114 (Red wine, Cotton)) was 2%. The “% removal EMPA 101” value ([2]; 5 gpg, 100 ppm, EMPA 101) was 29%, the “% removal EMPA 104” value ([2]; 5 gpg, 100 ppm, EMPA 104) was 24% and the “% removal EMPA 106” value ([2]; 5 gpg, 100 ppm, EMPA 106) was 50.14%. For the same substance, the “% removal EMPA 111” value ([2]; 5 gpg, 100 ppm, EMPA 111) was 54%, the “% removal EMPA 114” value ([2]; 5 gpg, 100 ppm, EMPA 114) was 0% and the “% removal EMPA 116” value ([2]; 5 gpg, 100 ppm, EMPA 116) was 25%. For the same substance, the “% removal EMPA 101” value ([2]; 17 gpg, 50 ppm, EMPA 101) was 21%, the “% removal EMPA 104” value ([2]; 17 gpg, 50 ppm, EMPA 104) was 19% and the “% removal EMPA 106” value ([2]; 17 gpg, 50 ppm, EMPA 106) was 9%. For the same substance, the “% removal EMPA 111” value ([2]; 17 gpg, 50 ppm, EMPA 111) was 35%, the “% removal EMPA 114” value ([2]; 17 gpg, 50 ppm, EMPA 114) was 1% and the “% removal EMPA 116” value ([2]; 17 gpg, 50 ppm, EMPA 116) was 21%. The “% removal EMPA 101” value ([2]; 17 gpg, 100 ppm, EMPA 101) was 20%, the “% removal EMPA 104” value ([2]; 17 gpg, 100 ppm, EMPA 104) was 16% and the “% removal EMPA 106” value ([2]; 17 gpg, 100 ppm, EMPA 106) was 10%. For the same substance, the “% removal EMPA 111” value ([2]; 17 gpg, 100 ppm, EMPA 111) was 32%, the “% removal EMPA 114” value ([2]; 17 gpg, 100 ppm, EMPA 114) was 1% and the “% removal EMPA 116” value ([2]; 17 gpg, 100 ppm, EMPA 116) was 20%. For the same substance, the “Physical state at room temperature” value [3] was “liquid”, the “Cloud Point Data 1% in 10% NaCl” value [4] was 95 °C and the “Gel Formation” value (Gel formation with water; 20%/80%) was “None”. For the same substance, the “Gel Formation” value (Gel formation with water; 30%/70%) was “None”, the “Gel Formation” value (Gel formation with water; 40%/60%) was “None” and the “Gel Formation” value (Gel formation with water; 50%/50%) was “None”. For the same substance, the “Gel Formation” value (Gel formation with water; 60%/40%) was “None”, the “Gel Formation” value (Gel formation with water; 70%/30%) was “None” and the “Gel Formation” value (Gel formation with water; 80%/20%) was “None”. For the same substance, the “Gel Formation” value (Gel formation with water; 90%/10%) was “None” and the “Gel Formation” value (Gel formation with water; Glycerin Ether Ethoxylate %/Water % 10%/90%) was “None”.
